Patent publication US20210100788A1, “PALONOSETRON FORMULATIONS AND USES THEREOF” (LUXENA PHARMACEUTICALS, INC., priority 2014, published 2021)
Structures can show the parent of a compound that is named as a salt.

Experiment: Particle size distribution of jet milled palonosetron fine powder by HELOS Particle Size Analyzer
Format: physicochemical
Method: Palonosetron HCl was milled with a 2-in pancake Jet Mill and flexible containment. The process air was nitrogen. The jet milling was conducted at Catalent Micron Technologies, Malvern, Pa., USA.
The particle size distribution of the palonosetron fine powder, prepared by jet milling, was measured by HELOS Particle Size Analyzer (Sympatec GmbH, Germany) at Micron Technologies, Inc., Malvern, Pa., USA.
The Particle Size Distribution parameters are: • D10: 0.68 μm • D50: 1.39 μm • D90: 2.89 μm • D95: 3.68 μm • D99.5: 6.92 μm • Cumulative % <9 μm: 100%

- Cumulative % <9 μm: 100%
- D10: 0.68 μm
- D50: 1.39 μm
- D90: 2.89 μm
- D95: 3.68 μm
- D99.5: 6.92 μm
Compound: O=C1c2cccc3c2[C@H](CCC3)CN1[C@@H]1CN2CCC1CC2 [Jet Milled Palonosetron Fine Powder, Palonosetron HCl]
